The subject of this experiment is Botrytis cinerea. Nature of the experiment: Antimicrobial bioassay (Botrytis cinerea): growth inhibition by OD600. The experiment is classed as cell-based. Particulars: for anti-Botrytis activities relative to NCR13a: Botrytis cinerea growth, comparison with NCR13a; for Activity ratio to NCR13a: anti-Botrytis cinerea activity (IC50) relative to comparator NCR13a. Here is the method: The antimicrobial effect of the NCR13 variant peptides (NVPs) of the present disclosure were evaluated against the fungal species, Botrytis cinerea. […] The growth of Botrytis cinerea was then assessed via OD600 nm after incubation with a given NVP at room temperature after 96 hours. The IC50 of each peptide analyzed is shown in ppm.
The antimicrobial effect of the NCR13 variant peptides (NVPs) of the present disclosure were evaluated against the fungal species, Botrytis cinerea. […] The growth of Botrytis cinerea was then assessed via OD600 nm after incubation with a given NVP at room temperature after 96 hours.
The NVPs assessed were as follows: NVPM3 (+L) (SEQ ID NO: 5); NVPM5 (+M) (SEQ ID NO: 7); NVPM6 (+F) (SEQ ID NO: 8); NVPM7 (+W) (SEQ ID NO: 9); NVPM9 (+S) (SEQ ID NO: 11); NVPM11 (+Y) (SEQ ID NO: 13); NVPM14 (+D) (SEQ ID NO: 16); and NVPM15 (+E) (SEQ ID NO: 17).
NVPs having an amino acid sequence of SEQ ID NOs: 5, 7, 8, 9, 11, 13, 16, and 17 were generated as described above in Example 1. The peptide, NCR13a, having an amino acid sequence of: […] (SEQ ID NO: 2) was selected as a comparator peptide, with which the antifungal activity of the foregoing NVPs was compared.
The fungal species was Botrytis cinerea was cultured in potato dextrose agar plates. Fungal spores were collected from the agar plates and suspended into de-ionized water, followed by enumeration in a Petroff-Hausser counting chamber (VWR).
The 96-well plates were incubated at room temperature for 96 hours without shaking. The OD600 of the culture plate was determined using SpectraMax plate reader. Relative OD600 was determined by normalizing cell growth to control wells containing neither NVPs nor NCR13a. The OD600 was used to determine IC50.

Each structure is given as a SMILES string. Where a SMILES comes first, the peptide text is derived from it.

As to `CC[C@H](C)[C@H](NC(=O)[C@H](CS)NC(=O)[C@H](CCCCN)NC(=O)[C@@H]1CCCN1C(=O)[C@@H](NC(=O)[C@H](CCCCN)NC(=O)[C@@H]1CCCN1C(=O)[C@H](CCCCN)NC(=O)[C@H](CCCNC(=N)N)NC(=O)[C@H](CS)NC(=O)[C@H](C)NC(=O)[C@H](Cc1ccccc1)NC(=O)[C@H](CCCCN)NC(=O)[C@H](CCCCN)NC(=O)[C@H](CS)NC(=O)[C@H](CC(=O)O)NC(=O)[C@H](CCCCN)NC(=O)[C@H](CC(=O)O)NC(=O)[C@H](CO)NC(=O)[C@H](CCC(N)=O)NC(=O)[C@H](CS)NC(=O)[C@@H]1CCCN1C(=O)[C@H](CCCCN)NC(=O)[C@@H](NC(=O)[C@@H](N)Cc1ccc(O)cc1)[C@@H](C)O)C(C)C)C(=O)N[C@@H](CC(N)=O)C(=O)NCC(=O)N[C@@H](Cc1ccccc1)C(=O)N[C@@H](CS)C(=O)N[C@@H](CCCCN)C(=O)N[C@@H](CS)C(=O)N[C@H](C(=O)N[C@@H](CCCNC(=N)N)C(=O)O)C(C)C` [NVPM11] (H-YTKPCQSDKDCKKFACRKPKVPKCINGFCKCVR-OH; N-terminus and C-terminus assumed), the “anti-Botrytis activities relative to NCR13a” value is listed as “improved anti-Botrytis activities relative to NCR13a” and the “Activity ratio to NCR13a” value is listed as 1.77.
The like results for `CC[C@H](C)[C@H](NC(=O)[C@H](CS)NC(=O)[C@H](CCCCN)NC(=O)[C@@H]1CCCN1C(=O)[C@@H](NC(=O)[C@H](CCCCN)NC(=O)[C@@H]1CCCN1C(=O)[C@H](CCCCN)NC(=O)[C@H](CCCNC(=N)N)NC(=O)[C@H](CS)NC(=O)[C@H](C)NC(=O)[C@H](Cc1ccccc1)NC(=O)[C@H](CCCCN)NC(=O)[C@H](CCCCN)NC(=O)[C@H](CS)NC(=O)[C@H](CC(=O)O)NC(=O)[C@H](CCCCN)NC(=O)[C@H](CC(=O)O)NC(=O)[C@H](CO)NC(=O)[C@H](CCC(N)=O)NC(=O)[C@H](CS)NC(=O)[C@@H]1CCCN1C(=O)[C@H](CCCCN)NC(=O)[C@@H](NC(=O)[C@@H](N)CC(=O)O)[C@@H](C)O)C(C)C)C(=O)N[C@@H](CC(N)=O)C(=O)NCC(=O)N[C@@H](Cc1ccccc1)C(=O)N[C@@H](CS)C(=O)N[C@@H](CCCCN)C(=O)N[C@@H](CS)C(=O)N[C@H](C(=O)N[C@@H](CCCNC(=N)N)C(=O)O)C(C)C` [NVPM14] (H-DTKPCQSDKDCKKFACRKPKVPKCINGFCKCVR-OH; N-terminus and C-terminus assumed) were, in that order, “improved anti-Botrytis activities relative to NCR13a” and 1.61.
On to `CC[C@H](C)[C@H](NC(=O)[C@H](CS)NC(=O)[C@H](CCCCN)NC(=O)[C@@H]1CCCN1C(=O)[C@@H](NC(=O)[C@H](CCCCN)NC(=O)[C@@H]1CCCN1C(=O)[C@H](CCCCN)NC(=O)[C@H](CCCNC(=N)N)NC(=O)[C@H](CS)NC(=O)[C@H](C)NC(=O)[C@H](Cc1ccccc1)NC(=O)[C@H](CCCCN)NC(=O)[C@H](CCCCN)NC(=O)[C@H](CS)NC(=O)[C@H](CC(=O)O)NC(=O)[C@H](CCCCN)NC(=O)[C@H](CC(=O)O)NC(=O)[C@H](CO)NC(=O)[C@H](CCC(N)=O)NC(=O)[C@H](CS)NC(=O)[C@@H]1CCCN1C(=O)[C@H](CCCCN)NC(=O)[C@@H](NC(=O)[C@@H](N)CCC(=O)O)[C@@H](C)O)C(C)C)C(=O)N[C@@H](CC(N)=O)C(=O)NCC(=O)N[C@@H](Cc1ccccc1)C(=O)N[C@@H](CS)C(=O)N[C@@H](CCCCN)C(=O)N[C@@H](CS)C(=O)N[C@H](C(=O)N[C@@H](CCCNC(=N)N)C(=O)O)C(C)C` [NVPM15] (H-ETKPCQSDKDCKKFACRKPKVPKCINGFCKCVR-OH; N-terminus and C-terminus assumed), for which the “anti-Botrytis activities relative to NCR13a” value is given as “improved anti-Botrytis activities relative to NCR13a” and the “Activity ratio to NCR13a” value came out at 1.43.
